Calls of active or inactive are those of the source. No cut-off for these calls is given here.
How the values were obtained:
[1] = Selectivity ratio of IC50 for FTO (32 to 505 residues) (unknown origin) extracted from Escherichia coli BL21 (DE3) cells to IC50 for ALKBH5 (66 to 292 residues) (unknown origin) extracted from Escherichia coli BL21 (DE3) cells by restriction enzyme digestion assay
[2] = test system: MOLM-13; assay: Induction of cell cycle arrest in human MOLM-13 cells assessed as accumulation of cells at G0/G1 phase at 40 uM incubated for 72 hrs by flow cytometry analysis (reference value: 65.53 %); assay type: functional
[3] = biological target: T1, Alpha-ketoglutarate-dependent dioxygenase FTO (Homo sapiens, UniProt Q9C0B1); assay: Inhibition of FTO (32 to 505 residues) (unknown origin) extracted from Escherichia coli BL21 (DE3) cells using m6A ssDNA as substrate incubated for 2 hrs by TBE-PAGE based restriction enzyme digestion assay
T1 sequence (Q9C0B1 whole entry, the tested form may be a part): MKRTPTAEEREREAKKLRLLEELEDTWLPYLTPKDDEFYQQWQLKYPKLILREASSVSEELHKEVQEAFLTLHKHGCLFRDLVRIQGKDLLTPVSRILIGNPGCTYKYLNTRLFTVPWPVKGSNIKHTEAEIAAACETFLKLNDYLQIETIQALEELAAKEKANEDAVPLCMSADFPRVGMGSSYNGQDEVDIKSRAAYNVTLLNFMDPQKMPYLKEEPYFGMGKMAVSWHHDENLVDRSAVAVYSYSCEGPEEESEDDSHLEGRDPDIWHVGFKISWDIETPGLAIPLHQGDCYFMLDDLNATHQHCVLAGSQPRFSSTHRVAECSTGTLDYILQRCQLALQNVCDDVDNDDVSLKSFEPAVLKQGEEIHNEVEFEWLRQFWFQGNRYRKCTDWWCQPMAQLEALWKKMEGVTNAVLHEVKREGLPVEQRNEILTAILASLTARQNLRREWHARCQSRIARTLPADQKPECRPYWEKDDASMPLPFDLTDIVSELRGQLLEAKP

[4] = biological target: T2, RNA demethylase ALKBH5 (Homo sapiens, UniProt Q6P6C2); assay: Inhibition of ALKBH5 (66 to 292 residues) (unknown origin) extracted from Escherichia coli BL21 (DE3) cells using m6A ssDNA as substrate assessed as Kinact/Ki ratio measured after 6 hrs by fluorescence polarization assay
Target sequence in this assay (Q6P6C2 2-394 limits assumed): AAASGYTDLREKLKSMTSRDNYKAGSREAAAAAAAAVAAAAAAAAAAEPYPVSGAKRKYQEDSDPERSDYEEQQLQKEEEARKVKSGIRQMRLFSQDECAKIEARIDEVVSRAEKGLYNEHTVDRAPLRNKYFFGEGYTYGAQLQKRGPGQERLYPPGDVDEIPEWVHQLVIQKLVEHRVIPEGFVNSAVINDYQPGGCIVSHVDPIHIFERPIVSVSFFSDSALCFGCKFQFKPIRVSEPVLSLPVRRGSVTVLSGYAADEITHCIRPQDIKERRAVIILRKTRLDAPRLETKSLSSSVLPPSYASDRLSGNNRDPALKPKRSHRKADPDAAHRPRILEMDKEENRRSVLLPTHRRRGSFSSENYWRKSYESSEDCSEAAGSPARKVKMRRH

[5] = biological target: T2, RNA demethylase ALKBH5; assay: Binding affinity to ALKBH5 (66 to 292 residues) (unknown origin) extracted from Escherichia coli BL21 (DE3) cells assessed as dissociation constant incubated for 1 hrs by MST analysis
Target sequence in this assay (Q6P6C2 whole entry, the tested form may be a part): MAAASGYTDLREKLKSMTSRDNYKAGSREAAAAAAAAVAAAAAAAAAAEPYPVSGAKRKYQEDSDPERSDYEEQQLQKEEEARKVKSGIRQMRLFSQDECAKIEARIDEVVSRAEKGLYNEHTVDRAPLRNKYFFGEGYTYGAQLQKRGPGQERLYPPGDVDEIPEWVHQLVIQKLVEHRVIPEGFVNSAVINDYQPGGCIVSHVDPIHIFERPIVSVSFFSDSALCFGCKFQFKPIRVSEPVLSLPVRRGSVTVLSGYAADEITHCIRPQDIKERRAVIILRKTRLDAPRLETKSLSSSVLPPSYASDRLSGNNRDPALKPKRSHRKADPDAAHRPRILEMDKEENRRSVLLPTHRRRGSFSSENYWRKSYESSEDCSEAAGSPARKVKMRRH

[6] = biological target: T2, RNA demethylase ALKBH5; assay: Binding affinity to ALKBH5 (66 to 292 residues) (unknown origin) extracted from Escherichia coli BL21 (DE3) cells at 1:1 protein:compound ratio by mass spectrometry analysis
Target sequence in this assay (Q6P6C2 2-394 limits assumed): as the sequence (Q6P6C2 2-394 limits assumed) above

[7] = biological target: T2, RNA demethylase ALKBH5; assay: Inhibition of ALKBH5 (66 to 292 residues) (unknown origin) extracted from Escherichia coli BL21 (DE3) cells using m6A ssDNA as substrate assessed as inactivation constant (Ki) measured after 6 hrs by fluorescence polarization assay
Target sequence in this assay (Q6P6C2 whole entry, the tested form may be a part): as the sequence (Q6P6C2 whole entry, the tested form may be a part) above

[8] = test system: MOLM-13; assay: Induction of apoptosis in human MOLM-13 cells assessed as viable cells at 80 uM incubated for 72 hrs by Annexin V FITC/PI staining based flow cytometry analysis (reference value: 89.65%); assay type: functional; details: read-out: Activity
[9] = biological target: T2, RNA demethylase ALKBH5; assay: Inhibition of ALKBH5 (66 to 292 residues) (unknown origin) extracted from Escherichia coli BL21 (DE3) cells using m6A ssDNA as substrate incubated for 2 hrs by TBE-PAGE based restriction enzyme digestion assay
Target sequence in this assay (Q6P6C2 whole entry, the tested form may be a part): as above

[10] = biological target: T2, RNA demethylase ALKBH5; assay: Inhibition of ALKBH5 (66 to 292 residues) (unknown origin) extracted from Escherichia coli BL21 (DE3) cells using m6A ssDNA as substrate measured after 300 mins by fluorescence polarization assay
Target sequence in this assay (Q6P6C2 whole entry, the tested form may be a part): as above

[11] = test system: RNA demethylase ALKBH5 (Homo sapiens), Q6P6C2 [K132E]; assay: Induction of thermal stabilization of ALKBH5 K132E mutant (66 to 292 residues) (unknown origin) extracted from Escherichia coli BL21 (DE3) cells assessed as melting temperature by thermal shift assay (reference value: 47.05 degreeC)
RNA demethylase ALKBH5 (Homo sapiens), Q6P6C2 [K132E], sequence (Q6P6C2 whole entry K132E, the tested form may be a part): as the sequence (Q6P6C2 whole entry, the tested form may be a part) above, with K132E counted along it

[12] = biological target: T2, RNA demethylase ALKBH5; assay: Inhibition of ALKBH5 (66 to 292 residues) (unknown origin) extracted from Escherichia coli BL21 (DE3) cells using m6A ssDNA as substrate measured after 20 mins by fluorescence polarization assay
Target sequence in this assay (Q6P6C2 whole entry, the tested form may be a part): as the sequence (Q6P6C2 whole entry, the tested form may be a part) above

[13] = biological target: T2, RNA demethylase ALKBH5; assay: Binding affinity to ALKBH5 (66 to 292 residues) (unknown origin) extracted from Escherichia coli BL21 (DE3) cells assessed as dissociation constant incubated for 4 hrs by MST analysis
Target sequence in this assay (Q6P6C2 whole entry, the tested form may be a part): as above

[14] = biological target: T2, RNA demethylase ALKBH5; assay: Inhibition of ALKBH5 (66 to 292 residues) (unknown origin) extracted from Escherichia coli BL21 (DE3) cells using m6A ssDNA as substrate measured after 2 hrs by fluorescence polarization assay
[15] = test system: MOLM-13; assay: Downregulation of AXL protein expression levels in human MOLM-13 cells at 20 to 80 uM incubated for 72 hrs by Western blot analysis; assay type: functional, cell-based; details: dose 20-80 µM
[16] = biological target: T2, RNA demethylase ALKBH5; assay: Inhibition of ALKBH5 (66 to 292 residues) (unknown origin) extracted from Escherichia coli BL21 (DE3) cells using m6A ssDNA as substrate assessed as maximum inactivation rate constant (Kinact) measured after 6 hrs by fluorescence polarization assay
Target sequence in this assay (Q6P6C2 2-394 limits assumed): as the sequence (Q6P6C2 2-394 limits assumed) above

[17] = test system: MOLM-13; assay: Downregulation of AXL mRNA expression levels in human MOLM-13 cells at 10 to 80 uM incubated for 72 hrs by qRT-PCR analysis; assay type: functional, cell-based; details: dose 10-80 µM
[18] = biological target: T2, RNA demethylase ALKBH5; assay: Inhibition of ALKBH5 (66 to 292 residues) (unknown origin) extracted from Escherichia coli BL21 (DE3) cells using m6A ssDNA as substrate measured after 6 hrs by fluorescence polarization assay
[19] = test system: MV4-11; assay: Downregulation of AXL mRNA expression levels in human MV4-11 cells at 10 to 80 uM incubated for 72 hrs by qRT-PCR analysis; assay type: functional, cell-based; details: dose 10-80 µM
[20] = biological target: T1, Alpha-ketoglutarate-dependent dioxygenase FTO; assay: Binding affinity to FTO (32 to 505 residues) (unknown origin) extracted from Escherichia coli BL21 (DE3) cells assessed as dissociation constant by ITC assay
[21] = biological target: T3, Alpha-ketoglutarate-dependent dioxygenase alkB homolog 3 (Homo sapiens, UniProt Q96Q83); assay: Inhibition of ALKBH3 (unknown origin) by restriction enzyme digestion method
T3 sequence (Q96Q83 whole entry): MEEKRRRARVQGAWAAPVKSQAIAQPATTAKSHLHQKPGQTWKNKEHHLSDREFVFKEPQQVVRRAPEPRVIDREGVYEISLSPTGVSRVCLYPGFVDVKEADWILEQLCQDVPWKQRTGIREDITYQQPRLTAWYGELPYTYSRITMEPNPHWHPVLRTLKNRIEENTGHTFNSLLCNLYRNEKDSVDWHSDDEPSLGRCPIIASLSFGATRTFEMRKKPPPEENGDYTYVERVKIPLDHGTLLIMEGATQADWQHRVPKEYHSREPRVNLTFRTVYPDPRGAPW

[22] = test system: MOLM-13; assay: Induction of cell cycle arrest in human MOLM-13 cells assessed as accumulation of cells at S phase at 80 uM incubated for 72 hrs by flow cytometry analysis (reference value: 17.47 %); assay type: functional
[23] = biological target: T2, RNA demethylase ALKBH5; assay: Binding affinity to ALKBH5 (66 to 292 residues) (unknown origin) extracted from Escherichia coli BL21 (DE3) cells assessed as dissociation constant incubated for 5 hrs by MST analysis
[24] = test system: MOLM-13; assay: Induction of apoptosis in human MOLM-13 cells assessed as late apoptotic cells at 80 uM incubated for 72 hrs by Annexin V FITC/PI staining based flow cytometry analysis (reference value: 4.28 %); assay type: functional
[25] = biological target: T2, RNA demethylase ALKBH5; assay: Inhibition of ALKBH5 (66 to 292 residues) (unknown origin) extracted from Escherichia coli BL21 (DE3) cells using m6A ssDNA as substrate measured after 1 hrs by fluorescence polarization assay
[26] = test system: MOLM-13; assay: Induction of cell cycle arrest in human MOLM-13 cells assessed as accumulation of cells at S phase at 40 uM incubated for 72 hrs by flow cytometry analysis (reference value: 17.47 %); assay type: functional
[27] = biological target: T2, RNA demethylase ALKBH5; assay: Binding affinity to ALKBH5 in human MOLM-13 cells assessed as protection of pronase-mediated protein degradation at 12.5 to 50 uM preincubated for 30 mins followed by protease addition and measured after 10 mins by DARTS method; assay type: cell-based; details: dose 12.5-50 µM, time 40.0 min
Target sequence in this assay (Q6P6C2 2-394 limits assumed): as the sequence (Q6P6C2 2-394 limits assumed) above

## O=Cc1cc(S(=O)(=O)NC(=O)c2cc(C(=O)O)ccn2)c2ccccc2c1O
[1]
  Ratio IC50: 10
[2]
  Activity: 68.23%
[3]
  IC50: 19.7 µM
[4]
  Ratio: 0.03 µM⁻¹ min⁻¹
[5]
  Kd: 2.63 µM
[6]
  Activity: Active; Mass Peak Of 28,181.6 Da Observed
[7]
  Ki: 0.41 µM
[8]
  viability at 80 µM: 77.6%
[9]
  IC50: 2.53 µM
[10]
  IC50: 0.2 µM
[11]
  Tm: 46.1 °C
[12]
  IC50: 0.78 µM
[13]
  Kd: 0.65 µM
[14]
  IC50: 0.35 µM
[15]
  Activity: Active
[16]
  Kinact: 14.2 min⁻¹
[17]
  Activity: Active
[18]
  IC50: 0.17 µM
[19]
  Activity: Active
[20]
  Kd: 27.6 µM
[21]
  IC50: 75.4 µM
[22]
  Activity: 4.11%
[23]
  Kd: 0.56 µM
[24]
  Activity: 12%
[25]
  IC50: 0.48 µM
[26]
  Activity: 5.67%
[27]
  Activity: Active

Source: ChEMBL document CHEMBL6153040, “Discovery of the salicylaldehyde-based compound DDO-02267 as a lysine-targeting covalent inhibitor of ALKBH5” (Eur J Med Chem, 2025)
